US9926304B2, “1-(arylmethyl)quinazoline-2,4(1H,3H)-diones as PARP inhibitors and the use thereof” (Impact Therapeutics, Inc., priority 2011, dated 2018)

Legend:
[1] = tested on: SW620 human colorectal cancer cells; assay: MTT based cell viability assay: potentiation of the growth inhibiting activity of MMS; conditions: Homo sapiens, SW-620, 120 h, read-out: IC50 (nM), potentiation of the growth inhibiting activity of MMS, SW620 cells, 1.7 μg/ml MMS, 5 days (120 hours), MTT
Protocol: Briefly, SW620 human colorectal cancer cells were used to measure the cell growth inhibiting activity of DNA alkylating anticancer drug MMS. […] SW620 cells were grown and maintained in RPMI1640 (Gibco) medium supplemented with 10% FBS (Hyclone). In the first day of experiment, 4000 cells were seeded to each well of a 96-well cell culture plate and incubated at 37° C. and 5% CO2 in a cell culture incubator overnight. In the next day, the cell culture medium was removed. […] The serial dilutions of the reference compounds and the compounds to be tested were made with a 1:3 and 1:10 fashion in DMSO. The 10-fold concentrated solutions of these compounds were made by mixing 10 μl of the serial dilutions in DMSO with 90 μl fresh medium. The final concentration of DMSO in the medium was 1%. The cells were incubated at 37° C. in 5% CO2 cell culture incubator for additional 5 days (120 hours). Afterwards, the 96-well cell culture plate was taken out and 20 μl of MTT solution was added to each well and incubated at 37° C. for 4 h. The medium was removed and 100 μl DMSO was added to each well. The 96-well cell culture plates were shaked adequately for 10 min and read in a Varioskan Flash plate reader (Thermo Fisher Scientific) at 520 and 690 nm. The data were analyzed by Prism 5 software (GraphPad). The obtained 520 nm absorbance readings subtracting corresponding 690 nm reading were analyzed and plotted against the Log scale of the compound concentrations.

PARP-1 enzyme = target: T1, PARP-1 enzyme (Homo sapiens, UniProt P09874); assay: PARP-1 enzymatic activity assay (Trevigen 96-well kit 4676-096-K); assay type: biochemical; conditions: 0.5 unit PARP-1, histone pre-coated plate, 60 min at room temperature; read-out: IC50 (nM), inhibitory effect on PARP-1 enzymatic activity
T1 construct: purchased Trevigen, Inc. 4676-096-K
Source text: Measurement of the inhibitory effect of 1-(3-(4-(pyrimidin-2-yl)piperazine-1-carbonyl)benzyl)quinazoline-2,4(1H,3H)-dione and analogs on PARP-1 enzymatic activity
Briefly, PARP-1 catalyzes the NAD-dependent addition of poly(ADP-ribose) to its nuclear protein substrates such as histones. The assay kit measures the incorporation of biotynylated poly(ADP-ribose) onto histone proteins in a 96-well format.

[2] = tested on: Human breast cancer cell line T47D; assay: Cell based caspase-3 activity assay: potentiation of MMS induced apoptosis; conditions: Homo sapiens, T47D, 24 h, T47D cells, 11.1 μg/ml MMS, 24 hours, intracellular caspase-3 activity; read-out: EC50 (nM), potentiation of the apoptosis inducing activity of MMS
Procedure, shortened: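 T47D cells were exposed for 24 h to compound plus a minimally apoptotic MMS dose (medium containing 11.1 μg/ml MMS). Lysates were incubated 3 h at 37 °C with (Ac-DEVD)2-R110 caspase-3 substrate (20 μM in added buffer) and read at ex 496/em 520 nm. EC50 came from a sigmoidal fit of RFU versus log concentration.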

[3] = tested on: BRCA-2 deficient CAPAN-1 human pancreatic cancer cells; assay: MTT based cell viability assay: growth inhibition of BRCA-2 deficient CAPAN-1 cells; conditions: 240 h, compound alone, 10 day assay
Source text: Determination of the cell growth inhibiting activity of 1-(3-(4-(pyrimidin-2-yl)piperazine-1-carbonyl)benzyl)quinazoline-2,4(1H,3H)-dione and analogs on BRCA-2 deficient CAPAN-1 pancreatic duck cancer cells using a MTT based cell viability assay
BRCA-deficient cancer cells are sensitive to PARP inhibition. In the presence of PARP inhibitors, BRCA-deficient cancer cells could not grow and eventually will lead to death of cells. BRCA-2 deficient CAPAN-1 human pancreatic cancer cells were used to test the growth inhibiting activity of substituted 1-(arylmethyl)quinazoline-2,4(1H,3H)-diones. Briefly, CAPAN-1 cells are grown and maintained in IMEM medium supplemented with 20% FBS. The assay takes 10 days to finish. On day 1, 6000 CAPAN-1 cells are seeded to each well of a 96-well plate. The cells are incubated at 37° C. in a cell culture incubator overnight. In the next day, serial dilutions of compounds to be tested and reference compound (AZD2281) were prepared with a 1:3 and 1:10 fashion in DMSO. Ten-fold compound solutions were made by mixing 10 μl DMSO serial dilution solutions with 90 μl fresh growth medium. The cell culture medium was removed and 180 μl fresh media with FBS and 20 μl of compound solutions were added to each well. The final concentration of DMSO was 1%. Cells were then returned to the CO2 cell culture incubator and incubated at 37° C. for two days (day 3 and day 4). On day 5, the same procedure as what was done on day 2 was repeated. Cell culture medium was removed and fresh medium containing serial dilutions of compounds or reference compounds were added. Cells were returned to the CO2 cell culture incubator and incubated for two more days. On day 8, same procedure was repeated again and fresh medium containing the testing compounds or reference compounds were added and incubated for an additional 2 days. On day 10, 20 μl of MTT reagent (5 mg/ml) was added to each well of the cell culture plate and incubated for 4 h. The cell culture media was removed and 100 μl DMSO was added to each well. The 96-well cell culture plates were shaked horizontally for 10 min and readed in a Varioskan Flash plate reader (Thermo Fisher Scientific) at 520 and 690 nm. The obtained 520 nm absorbance readings subtracting corresponding 690 nm reading were analyzed using a commercial graphic software (GraphPad Prism 5) and plotted against the Log scale of the compound concentrations.

T1 sequence (P09874 whole entry): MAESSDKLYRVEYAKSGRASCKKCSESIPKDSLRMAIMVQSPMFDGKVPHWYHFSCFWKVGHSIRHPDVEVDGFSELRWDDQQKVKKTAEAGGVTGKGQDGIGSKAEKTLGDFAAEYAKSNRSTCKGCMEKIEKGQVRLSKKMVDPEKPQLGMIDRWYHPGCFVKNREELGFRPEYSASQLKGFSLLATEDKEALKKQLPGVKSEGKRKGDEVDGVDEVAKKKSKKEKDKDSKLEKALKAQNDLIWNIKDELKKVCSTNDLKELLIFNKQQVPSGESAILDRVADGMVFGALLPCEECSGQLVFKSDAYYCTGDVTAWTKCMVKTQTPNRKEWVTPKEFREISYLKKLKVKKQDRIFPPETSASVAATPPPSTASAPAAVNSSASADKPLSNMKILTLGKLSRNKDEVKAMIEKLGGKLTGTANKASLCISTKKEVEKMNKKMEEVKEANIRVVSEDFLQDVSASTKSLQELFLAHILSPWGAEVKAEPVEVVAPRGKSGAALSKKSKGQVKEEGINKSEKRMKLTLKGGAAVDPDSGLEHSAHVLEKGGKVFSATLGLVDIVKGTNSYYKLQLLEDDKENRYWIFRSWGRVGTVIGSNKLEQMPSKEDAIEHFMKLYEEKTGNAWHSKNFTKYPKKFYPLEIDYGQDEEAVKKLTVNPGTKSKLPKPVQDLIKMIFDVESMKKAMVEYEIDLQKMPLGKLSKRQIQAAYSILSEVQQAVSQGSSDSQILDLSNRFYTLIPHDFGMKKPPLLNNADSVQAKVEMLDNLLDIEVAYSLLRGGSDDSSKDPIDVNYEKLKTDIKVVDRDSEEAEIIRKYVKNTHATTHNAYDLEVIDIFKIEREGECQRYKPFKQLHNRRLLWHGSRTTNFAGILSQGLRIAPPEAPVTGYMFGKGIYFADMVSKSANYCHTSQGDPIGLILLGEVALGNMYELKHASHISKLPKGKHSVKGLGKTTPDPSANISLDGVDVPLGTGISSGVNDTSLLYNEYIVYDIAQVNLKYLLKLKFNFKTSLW

Row | IC50 [1] [nM] | IC50 (PARP-1 enzyme) [nM] | EC50 [2] [nM] | IC50 [3] [nM] | Compound
1 | 102 | 2.3 | 39 |  | O=C(c1cccc(Cn2c(=O)[nH]c(=O)c3ccccc32)c1)N1CCN(C(=O)C2CCCC2)CC1 [Example 14, 1-(3-(4-(Cyclopentylcarbonyl)piperazine-1-carbonyl)benzyl)quinazoline-2,4(1H,3H)-dione]
2 | 6.8 | 1.74 | 9.8 |  | O=C(c1cc(Cn2c(=O)[nH]c(=O)c3c(F)cccc32)ccc1F)N1CCN(c2ccccn2)CC1 [Example 135, 5-Fluoro-1-(4-fluoro-3-(4-(pyridin-2-yl)piperazine-1-carbonyl)benzyl)quinazoline-2,4(1H,3H)-dione]
3 | 15 |  | 6 | 73 | O=C(c1cccc(Cn2c(=O)[nH]c(=O)c3cc(F)ccc32)c1)N1CCN(C(=O)C2CCCC2)CC1 [Example 143, 1-(3-(4-(Cyclopentylcarbonyl)piperazine-1-carbonyl)benzyl)-6-fluoroquinazoline-2,4(1H,3H)-dione]
4 | 12 |  | 6.5 | 146 | O=C(c1cc(Cn2c(=O)[nH]c(=O)c3cc(F)ccc32)ccc1F)N1CCN(c2ccccn2)CC1 [Example 145, 6-Fluoro-1-(4-fluoro-3-(4-(pyridin-2-yl)piperazine-1-carbonyl)benzyl)quinazoline-2,4(1H,3H)-dione]
5 | 14 |  | 5.8 | 52 | O=C(c1ccc(F)c(Cn2c(=O)[nH]c(=O)c3cc(F)ccc32)c1)N1CCN(c2ncccn2)CC1 [Example 149, 6-Fluoro-1-(6-fluoro-3-(4-(pyrimidin-2-yl)piperazine-1-carbonyl)benzyl)quinazoline-2,4(1H,3H)-dione]
6 | 25 |  | 16 | 176 | O=C(c1ccc(F)c(Cn2c(=O)[nH]c(=O)c3cc(F)ccc32)c1)N1CCN(c2ccccn2)CC1 [Example 150, 6-Fluoro-1-(6-fluoro-3-(4-(pyridin-2-yl)piperazine-1-carbonyl)benzyl)quinazoline-2,4(1H,3H)-dione]
7 | 13 |  | 5.1 | 121 | O=C(c1ccc(F)c(Cn2c(=O)[nH]c(=O)c3cc(F)ccc32)c1)N1CCN(C(=O)C2CCCCC2)CC1 [Example 152, 1-(3-(4-(Cyclohexylcarbonyl)piperazine-1-carbonyl)-6-fluorobenzyl)-6-fluoroquinazoline-2,4(1H,3H)-dione]
8 | 7.3 |  | 6.7 | 56 | O=C(c1ccc(F)c(Cn2c(=O)[nH]c(=O)c3c(F)cccc32)c1)N1CCN(c2ncccn2)CC1 [Example 154, 5-Fluoro-1-(6-fluoro-3-(4-(pyrimidin-2-yl)piperazine-1-carbonyl)benzyl)quinazoline-2,4(1H,3H)-dione]
9 | 23 |  | 12 | 142 | O=C(c1ccc(F)c(Cn2c(=O)[nH]c(=O)c3c(F)cccc32)c1)N1CCN(c2ccccn2)CC1 [Example 155, 5-Fluoro-1-(6-fluoro-3-(4-(pyridin-2-yl)piperazine-1-carbonyl)benzyl)quinazoline-2,4(1H,3H)-dione]
10 | 18 |  | 26 | 202 | O=C(c1ccc(F)c(Cn2c(=O)[nH]c(=O)c3c(F)cccc32)c1)N1CCN(C(=O)C2CCCCC2)CC1 [Example 157, 1-(3-(4-(Cyclohexylcarbonyl)piperazine-1-carbonyl)-6-fluorobenzyl)-5-fluoroquinazoline-2,4(1H,3H)-dione]
11 | 506 |  | 405 | 3550 | O=C(c1cccc(Cn2c(=O)[nH]c(=O)c3ccc(Cl)cc32)c1)N1CCN(c2ncccn2)CC1 [Example 161, 7-Chloro-1-(3-(4-(pyrimidin-2-yl)piperazine-1-carbonyl)benzyl)quinazoline-2,4(1H,3H)-dione]
12 | 15 |  | 3.8 | 1460 | O=C(c1cc(Cn2c(=O)[nH]c(=O)c3c(Cl)cccc32)ccc1F)N1CCN(C(=O)C2CCC2)CC1 [Example 168, 5-Chloro-1-(3-(4-(cyclobutylcarbonyl)piperazine-1-carbonyl)-4-fluorobenzyl)quinazoline-2,4(1H,3H)-dione]
13 | 9.5 |  | 3.2 | 389 | O=C(c1ccco1)N1CCN(C(=O)c2cc(Cn3c(=O)[nH]c(=O)c4c(F)cccc43)ccc2F)CC1 [Example 172, 5-Fluoro-1-(4-fluoro-3-(4-(furan-2-carbonyl)piperazine-1-carbonyl)benzyl)quinazoline-2,4(1H,3H)-dione]
14 | 15 |  | 10 | 187 | O=C(c1cc(F)cc(Cn2c(=O)[nH]c(=O)c3c(F)cccc32)c1)N1CCN(c2ncccn2)CC1 [Example 176, 5-Fluoro-1-(5-fluoro-3-(4-(pyrimidin-2-yl)piperazine-1-carbonyl)benzyl)quinazoline-2,4(1H,3H)-dione]
15 | 6.7 |  | 2.1 | 358 | O=C(c1ccco1)N1CCN(C(=O)c2cc(Cn3c(=O)[nH]c(=O)c4cc(F)ccc43)ccc2F)CC1 [Example 185, 6-Fluoro-1-(4-fluoro-3-(4-(furan-2-carbonyl)piperazine-1-carbonyl)benzyl)quinazoline-2,4(1H,3H)-dione]
16 | 24 |  | 6.8 | 167 | O=C(c1cc(F)cc(Cn2c(=O)[nH]c(=O)c3cc(F)ccc32)c1)N1CCN(c2ncccn2)CC1 [Example 186, 6-Fluoro-1-(5-fluoro-3-(4-(pyrimidin-2-yl)piperazine-1-carbonyl)benzyl)quinazoline-2,4(1H,3H)-dione]
17 | 10 | 2.2 |  | 736 | O=C(c1cc(Cn2c(=O)[nH]c(=O)c3c(F)cccc32)ccc1F)N1CCN(c2nccs2)CC1 [Example 189, 5-Fluoro-1-(4-fluoro-3-(4-(thiazol-2-yl)piperazine-1-carbonyl)benzyl)quinazoline-2,4(1H,3H)-dione]
18 | 19 |  | 4.9 | 948 | O=C(c1cccc(Cn2c(=O)[nH]c(=O)c3cc(F)ccc32)n1)N1CCN(c2ncccn2)CC1 [Example 199, 6-Fluoro-1-((2-(4-(pyrimidin-2-yl)piperazine-1-carbonyl)pyridin-6-yl)methyl)quinazoline-2,4(1H,3H)-dione]
19 | 10 |  | 15 | 3440 | O=C(c1cc(Cn2c(=O)[nH]c(=O)c3c(F)cccc32)ccc1F)N1CCN(C(=O)C2CCCO2)CC1 (stereo not drawn) [Example 210, 5-Fluoro-1-(4-fluoro-3-(4-(tetrahydrofuran-2-carbonyl)piperazine-1-carbonyl)benzyl)quinazoline-2,4(1H,3H)-dione]
20 | 19 |  | 45 | > 10000 | O=C(c1cc(Cn2c(=O)[nH]c(=O)c3c(F)cccc32)ccc1F)N1CCN(C2CCCCC2)CC1 [Example 212, 1-(3-(4-Cyclohexylpiperazine-1-carbonyl)-4-fluorobenzyl)-5-fluoroquinazoline-2,4(1H,3H)-dione]
21 | 2.5 |  | 19 | 460 | O=C(c1cc(Cn2c(=O)[nH]c(=O)c3c(F)cccc32)ccc1F)N1CCN(CC2CCCCC2)CC1 [Example 217, 1-(3-(4-(Cyclohexylmethyl)piperazine-1-carbonyl)-4-fluorobenzyl)-5-fluoroquinazoline-2,4(1H,3H)-dione]
